Reference: ChEMBL document CHEMBL4014300, “Synthesis and biological evaluation of novel quinazoline-sulfonamides as anti-cancer agents” (Bioorg Med Chem Lett, 2017)
Values after ≈ are worked out from the molar mass of the structure shown. Active and inactive are the calls of the source. The calls are words filed in the database; no cut-off is given here.

Tests used:
U-937 [1] = assay: Cytotoxicity against human U937 cells assessed as reduction in cell viability at 100 ug/ml after 24 hrs by MTT assay; format: functional, cell-based
DU-145 [2] = assay: Cytotoxicity against human DU145 cells assessed as reduction in cell viability at 100 ug/ml after 24 hrs by MTT assay; format: functional, cell-based
COLO 205 [3] = assay: Cytotoxicity against human COLO205 cells assessed as reduction in cell viability at 100 ug/ml after 24 hrs by MTT assay; format: functional, cell-based
THP-1 [4] = assay: Cytotoxicity against human THP1 cells assessed as reduction in cell viability at 100 ug/ml after 24 hrs by MTT assay; format: functional, cell-based
SK-OV-3 [5] = assay: Cytotoxicity against human SKOV3 cells assessed as reduction in cell viability at 100 ug/ml after 24 hrs by MTT assay; format: functional, cell-based
FHC [6] = assay: Cytotoxicity against human FHC cells assessed as reduction in cell viability at 100 ug/ml after 24 hrs by MTT assay; format: cell-based
THP-1 [7] = assay: Cytotoxicity against human THP1 cells assessed as reduction in cell viability after 24 hrs by MTT assay; format: functional, cell-based; details: THP-1, 24 h
U-937 [8] = assay: Cytotoxicity against human U937 cells assessed as reduction in cell viability after 24 hrs by MTT assay; format: functional, cell-based; details: U-937, 24 h
COLO 205 [9] = assay: Cytotoxicity against human COLO205 cells assessed as reduction in cell viability after 24 hrs by MTT assay; format: functional, cell-based; details: COLO 205, 24 h
DU-145 [10] = assay: Cytotoxicity against human DU145 cells assessed as reduction in cell viability after 24 hrs by MTT assay; format: functional, cell-based; details: DU-145, 24 h
FHC [11] = assay: Cytotoxicity against human FHC cells assessed as reduction in cell viability after 24 hrs by MTT assay; format: cell-based
SK-OV-3 [12] = assay: Cytotoxicity against human SKOV3 cells assessed as reduction in cell viability after 24 hrs by MTT assay; format: functional, cell-based; details: SK-OV-3, 24 h

Compound	Activity (U-937 [1])	Activity (DU-145 [2])	Activity (COLO 205 [3])	Activity (THP-1 [4])	Activity (SK-OV-3 [5])	Activity (FHC [6])	IC50 (THP-1 [7])	IC50 (U-937 [8])	IC50 (COLO 205 [9])	IC50 (DU-145 [10])	IC50 (FHC [11])	IC50 (SK-OV-3 [12])
COc1ccc(S(=O)(=O)Nc2nc(Cl)nc3cc(OC)c(OC)cc23)cc1	inactive	inactive	inactive	inactive	inactive	Non-Toxic						
COc1cc2nc(N3CCCC3)nc(NS(=O)(=O)c3ccc(C)cc3)c2cc1OC							7.06 µg/mL (≈ 16.5 µM)	8.61 µg/mL (≈ 20.1 µM)	24.1 µg/mL (≈ 56.3 µM)	14.1 µg/mL (≈ 33 µM)	48.1 µg/mL (≈ 112 µM)	20 µg/mL (≈ 46.7 µM)
COc1cc2nc(N3CCCC3)nc(NS(=O)(=O)c3cccs3)c2cc1OC	inactive	inactive	inactive	inactive	inactive	Non-Toxic						
COc1cc2nc(N3CCCC3)nc(NS(=O)(=O)C3CC3)c2cc1OC							9.13 µg/mL (≈ 24.1 µM)	6.43 µg/mL (≈ 17 µM)	10.2 µg/mL (≈ 26.8 µM)	11.1 µg/mL (≈ 29.3 µM)	66.6 µg/mL (≈ 176 µM)	17.6 µg/mL (≈ 46.4 µM)
COc1cc2nc(N3CCOCC3)nc(NS(=O)(=O)c3ccc(C)cc3)c2cc1OC	inactive				inactive	Non-Toxic	92.5 µg/mL (≈ 208 µM)		44.2 µg/mL (≈ 99.4 µM)	51.3 µg/mL (≈ 115 µM)		
COc1cc2nc(N3CCCC3)nc(NS(=O)(=O)c3cccc(C(F)(F)F)c3)c2cc1OC						Non-Toxic	15.9 µg/mL (≈ 32.9 µM)	16 µg/mL (≈ 33.2 µM)	78 µg/mL (≈ 162 µM)	65.1 µg/mL (≈ 135 µM)		22.1 µg/mL (≈ 45.9 µM)
COc1cc2nc(Cl)nc(NS(C)(=O)=O)c2cc1OC	inactive	inactive	inactive				99.7 µg/mL (≈ 314 µM)				88.1 µg/mL (≈ 277 µM)	88 µg/mL (≈ 277 µM)
COc1cc2nc(Cl)nc(NS(=O)(=O)Cc3cccc(I)c3)c2cc1OC		inactive	inactive		inactive	Non-Toxic	96.2 µg/mL (≈ 185 µM)	66.5 µg/mL (≈ 128 µM)				
COc1cc2nc(Cl)nc(NS(=O)(=O)Cc3ccccc3)c2cc1OC		inactive	inactive	inactive	inactive	Non-Toxic		91.7 µg/mL (≈ 233 µM)				
COc1cc2nc(Cl)nc(NS(=O)(=O)c3ccc(C)cc3)c2cc1OC					inactive	Non-Toxic	33.5 µg/mL (≈ 85.2 µM)	39.9 µg/mL (≈ 101 µM)	91.3 µg/mL (≈ 232 µM)	44.2 µg/mL (≈ 112 µM)		
COc1cc2nc(Cl)nc(NS(=O)(=O)c3cccc4c3OCO4)c2cc1OC		inactive	inactive			Non-Toxic	48.6 µg/mL (≈ 115 µM)	89.6 µg/mL (≈ 211 µM)				78.1 µg/mL (≈ 184 µM)
COc1cc2nc(N3CCOCC3)nc(NS(=O)(=O)C3CC3)c2cc1OC							13.8 µg/mL (≈ 34.9 µM)	8.09 µg/mL (≈ 20.5 µM)	49.1 µg/mL (≈ 124 µM)	25.1 µg/mL (≈ 63.5 µM)	73.2 µg/mL (≈ 186 µM)	32.1 µg/mL (≈ 81.5 µM)
COc1cc([C@@H]2c3cc4c(cc3[C@@H](O[C@@H]3O[C@@H]5CO[C@@H](C)O[C@H]5[C@H](O)[C@H]3O)[C@H]3COC(=O)[C@H]23)OCO4)cc(OC)c1O [ETOPOSIDE]							4.42 µg/mL (≈ 7.51 µM)	2.89 µg/mL (≈ 4.91 µM)	5.12 µg/mL (≈ 8.7 µM)	6.17 µg/mL (≈ 10.5 µM)	49.3 µg/mL (≈ 83.8 µM)	3.84 µg/mL (≈ 6.52 µM)
COc1cc2nc(Cl)nc(NS(=O)(=O)c3ccccc3)c2cc1OC							8.17 µg/mL (≈ 21.5 µM)	6.06 µg/mL (≈ 16 µM)	19 µg/mL (≈ 50.1 µM)	12.3 µg/mL (≈ 32.5 µM)	73 µg/mL (≈ 192 µM)	9.23 µg/mL (≈ 24.3 µM)
COc1cc2nc(Cl)nc(NS(=O)(=O)c3cccc(C(F)(F)F)c3)c2cc1OC						Non-Toxic	36.4 µg/mL (≈ 81.3 µM)	59 µg/mL (≈ 132 µM)	99 µg/mL (≈ 221 µM)	23.1 µg/mL (≈ 51.5 µM)		32.3 µg/mL (≈ 72.1 µM)
COc1cc2nc(N3CCOCC3)nc(NS(=O)(=O)c3cccc4c3OCO4)c2cc1OC	inactive	inactive	inactive		inactive	Non-Toxic	71.6 µg/mL (≈ 151 µM)					
COc1ccc(S(=O)(=O)Nc2nc(Cl)nc3cc(OC)c(OC)cc23)cc1C						Non-Toxic	79 µg/mL (≈ 186 µM)	41.1 µg/mL (≈ 96.9 µM)	57 µg/mL (≈ 134 µM)	39.5 µg/mL (≈ 93.1 µM)		68.1 µg/mL (≈ 161 µM)
COc1cc2nc(N3CCOCC3)nc(NS(=O)(=O)c3cccc(C(F)(F)F)c3)c2cc1OC						Non-Toxic	38.8 µg/mL (≈ 77.9 µM)	28.7 µg/mL (≈ 57.6 µM)	61.8 µg/mL (≈ 124 µM)	45.8 µg/mL (≈ 91.8 µM)		50.5 µg/mL (≈ 101 µM)
COc1cc2nc(Cl)nc(NS(=O)(=O)c3cccs3)c2cc1OC							11.2 µg/mL (≈ 29.1 µM)	10.1 µg/mL (≈ 26.1 µM)	27.5 µg/mL (≈ 71.3 µM)	16.4 µg/mL (≈ 42.6 µM)	98.7 µg/mL (≈ 256 µM)	19.1 µg/mL (≈ 49.4 µM)
COc1cc2nc(Cl)nc(NS(=O)(=O)c3ccc(C)cc3C)c2cc1OC							40.4 µg/mL (≈ 99.1 µM)	65.1 µg/mL (≈ 160 µM)	49 µg/mL (≈ 120 µM)	47.8 µg/mL (≈ 117 µM)	73.1 µg/mL (≈ 179 µM)	25.8 µg/mL (≈ 63.2 µM)
COc1cc2nc(Cl)nc(NS(=O)(=O)C3CC3)c2cc1OC	inactive	inactive	inactive	inactive	inactive	Non-Toxic						
COc1cc2nc(Cl)nc(NS(=O)(=O)c3cccc4ccccc34)c2cc1OC			inactive			Non-Toxic	82.4 µg/mL (≈ 192 µM)	35.3 µg/mL (≈ 82 µM)		63.6 µg/mL (≈ 148 µM)		95.3 µg/mL (≈ 222 µM)
